The source made the active and inactive calls.
Tests used:
[1] = viability of HCT116 lacking mutant beta-catenin – cell-based, human colon tumor, dose response (AID 1045); format: functional;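 note: HCT116 colon tumor cells with beta catenin knocked out; cells exposed to compound for 60 hours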
[2] = viability of PTEN-deleted HCT116 cells – cell-based, HCT116 PTEN knockout, dose response (AID 1047); format: functional;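 note: HCT116 colon tumor cells with PTEN knocked out; cells exposed to compound for 60 hours before readout; potency for loss of cell viability measured by luminescence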
[3] = Trypanosoma cruzi growth suppression in host cells – NIH3T3 host cells, beta-gal luminescence, confirmation (AID 2044); format: functional, cell-based;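 note: intracellular parasites grown in NIH/3T3 mouse fibroblasts as host cells; luminescent beta-galactosidase reporter signal from transgenic T. cruzi replicating inside host cells; inhibitors lower the luminescence signal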
[4] = NIH3T3 cell viability loss – ATP luminescence, mouse fibroblasts, counter-screen, dose response (AID 2010); format: functional, cell-based;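 note: cells exposed to compound for about 90 hours before reading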
INS1 = test: INS-1E survival protection against cytokine death – cell-based, luminescence, retest, dose response (AID 449756); format: functional; settings: Rattus norvegicus;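 note: cell death triggered by IL-1 beta plus TNF-alpha plus IFN-gamma mixture; protective hits raise ATP signal compared with cytokine alone wells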
Cytochrome P450 2C19 = Cytochrome P450 2C19 (Homo sapiens, UniProt P33261); test: Cytochrome panel assay with activity outcomes. Panel member name: p450-cyp2c19 Compounds with AC50 equal or less than 10 uM are considered active; format: functional
Chain of Cytochrome P450 2C19 (P33261 whole entry): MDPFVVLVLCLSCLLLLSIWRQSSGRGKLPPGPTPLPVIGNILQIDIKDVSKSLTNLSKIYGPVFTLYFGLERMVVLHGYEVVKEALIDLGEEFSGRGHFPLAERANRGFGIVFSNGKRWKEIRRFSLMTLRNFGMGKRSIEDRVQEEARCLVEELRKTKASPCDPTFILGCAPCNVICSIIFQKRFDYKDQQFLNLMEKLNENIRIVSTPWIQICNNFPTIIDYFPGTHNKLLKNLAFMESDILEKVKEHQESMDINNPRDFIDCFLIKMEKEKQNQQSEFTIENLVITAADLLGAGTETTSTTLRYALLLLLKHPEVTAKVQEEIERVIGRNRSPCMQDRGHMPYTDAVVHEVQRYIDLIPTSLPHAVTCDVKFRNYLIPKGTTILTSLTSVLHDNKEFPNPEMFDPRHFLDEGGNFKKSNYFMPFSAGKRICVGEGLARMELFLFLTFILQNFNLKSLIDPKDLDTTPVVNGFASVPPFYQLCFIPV

[5] = viability of uninfected HEp-2 cells – cell-based, HTS, cytotoxicity control for RSV inhibitor project, dose response (AID 2410); format: functional; settings: human respiratory syncytial virus
[6] = Luminescence Cell-Based Dose Response HTS to Identify Inhibitors of 5'UTR Stem-Loop Driven Prion Protein mRNA Translation in H4 Neuroglioblastoma Cells. [Related pubchem assays: 1827 (Project Summary), 1813 (Primary HTS)]; format: functional
[7] = alpha-synuclein stem-loop luciferase translation blockers – H4 neuroglioma cells, luminescence, confirmation (AID 1988); format: functional, cell-based
[8] = luciferase reporter signal suppression in cells – H4 neuroglioma cells, luminescence, dose response (AID 1990); format: functional, cell-based
Cytochrome P450 1A2 = target: T1, Cytochrome P450 1A2 (Homo sapiens, UniProt P05177);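 note: PubChem cytochrome P450 panel assay, CYP1A2 panel member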
T1 sequence (P05177 whole entry): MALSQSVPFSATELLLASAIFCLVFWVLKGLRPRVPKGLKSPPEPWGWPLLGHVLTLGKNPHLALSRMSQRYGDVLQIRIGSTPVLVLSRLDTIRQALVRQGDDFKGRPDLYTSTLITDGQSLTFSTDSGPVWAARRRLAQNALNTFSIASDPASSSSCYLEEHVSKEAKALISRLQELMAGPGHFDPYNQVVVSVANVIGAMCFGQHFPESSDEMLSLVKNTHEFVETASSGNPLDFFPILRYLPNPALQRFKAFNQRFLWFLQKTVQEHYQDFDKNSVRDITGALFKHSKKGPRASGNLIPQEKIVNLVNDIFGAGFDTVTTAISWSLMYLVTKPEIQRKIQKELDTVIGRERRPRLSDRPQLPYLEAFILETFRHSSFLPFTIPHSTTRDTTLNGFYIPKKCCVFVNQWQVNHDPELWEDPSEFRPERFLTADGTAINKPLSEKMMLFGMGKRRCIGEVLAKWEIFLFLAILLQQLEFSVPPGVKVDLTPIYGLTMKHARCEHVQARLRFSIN

Cc1sc2nc(CN3CCC(C)CC3)nc(Cl)c2c1C
EC50 [1]: 14.5 µM (active) | EC50 [2]: 18.5 µM (active)

Cc1ccc(-c2nnc(N3CCCCCC3)c3ccccc23)cc1
EC50 [3]: 1.19 µM (active) | EC50 [4]: > 60 µM (not active)

Cc1ccc(C2CC(c3cccc(C)c3)n3nc(N)nc3N2)cc1 (centres undefined)
AC50 (INS1): > 260 µM (inactive)

CN(C)c1ncc2nc(-c3ccccc3)c(=O)n(C)c2n1
AC50 (Cytochrome P450 2C19; read-out: AC50): 39.8 µM (inconclusive)

Cc1ccc(N2CCN(C(=O)c3nn(C)c4c3CS(=O)(=O)c3ccccc3-4)CC2)c(C)c1
CC50 [5]: 10.3 µM (active)

CCC(C)c1ccc(-c2cc(C(=O)OCC(=O)Nc3cc(C)on3)c3ccccc3n2)cc1 (centres undefined)
CC50 [5]: 43.8 µM (active)

COc1ccccc1N1CCN(S(=O)(=O)CCNC(=O)C2CC(=O)N(c3ccccc3)C2)CC1 (centres undefined)
EC50 [6]: > 120 µM (not active) | EC50 [7]: 114 µM (active) | EC50 [8]: > 120 µM (not active)

Cc1nc2ccccc2c(=O)n1-c1cc([N+](=O)[O-])cc([N+](=O)[O-])c1
EC50 [3]: 1.98 µM (active) | EC50 [4]: > 60 µM (not active)

COC(=O)C1CCC(C)(C(=O)Nc2ccccc2)C1(C)C (centres undefined)
AC50 (Cytochrome P450 1A2): 15.8 µM (inconclusive)

CN(C)CCN(C(=O)c1ccc(S(=O)(=O)N(C)c2ccccc2)cc1)c1nc2ccc(Cl)cc2s1
EC50 [3]: 0.117 µM (active) | EC50 [4]: > 15 µM (not active)

CC(=O)N1CCc2cc(S(=O)(=O)NCCC3=CCCCC3)ccc21
AC50 (INS1): 4.54 µM (active)

Cc1ccccc1C(=O)NC(=S)Nc1sc2c(c1C#N)CCCC2
CC50 [5]: 25.9 µM (active)

O=C(/C=C/c1ccccc1)NC(NC(=S)Nc1ccc(Cl)cc1Cl)C(Cl)(Cl)Cl (centres undefined)
EC50 [3]: 2.02 µM (active) | EC50 [4]: > 60 µM (not active)

CSCc1cc(N2CCOCC2)nc(SCc2ccc(Cl)c(Cl)c2)n1
CC50 [5]: 26.1 µM (active)

COc1ccc(-c2cc(C(F)F)n3ncc(C(=O)N4CCCCC4)c3n2)cc1
EC50 [3]: 1.25 µM (active) | EC50 [4]: > 60 µM (not active) | CC50 [5]: > 50 µM (active)

CCOC(=O)C1(CCOc2ccccc2)CCN(Cc2ccc3nonc3c2)CC1
EC50 [3]: 2.61 µM (active) | EC50 [4]: > 60 µM (not active)

CCC(C)Sc1nc2c(c(=O)[nH]c(=O)n2C)n1C (centres undefined)
CC50 [5]: 20.8 µM (active)

Cc1ccc(Cn2nnc3c(O)nc(C4CCN(S(=O)(=O)Cc5ccccc5)CC4)nc32)cc1
CC50 [5]: 26.8 µM (active)

CN1C/C(=C/c2ccsc2)C(=O)/C(=C/c2ccsc2)C1
EC50 [3]: 0.156 µM (active) | EC50 [4]: > 30 µM (not active)

COc1ccc(-c2csc3ncnc(N4CCN(S(=O)(=O)c5ccc(C)c(C)c5)CC4)c23)cc1
EC50 [3]: 2.05 µM (active) | EC50 [4]: 24.1 µM (active)

CCCc1cc(NCCCCO)n2c(nc3ccccc32)c1C#N
EC50 [6]: > 120 µM (not active) | EC50 [7]: > 120 µM (not active) | EC50 [8]: 25.6 µM (active)

Cc1cc(Cl)ccc1OCCCC(=O)NC1CCN(C)CC1
EC50 [3]: 0.164 µM (active) | EC50 [4]: > 60 µM (not active)

Nc1ccccc1C(=O)Nc1ccc(Cl)cc1Cl
CC50 [5]: 35.7 µM (active)

COc1ccc(C2=NN(C(=O)COc3ncnc4ccccc34)C(c3ccco3)C2)cc1 (centres undefined)
EC50 [6]: > 120 µM (not active) | EC50 [7]: > 60 µM (not active) | EC50 [8]: 13.8 µM (active)

CCCOc1ccc([N+](=O)[O-])cc1C1NC(S)=NC(c2ccccc2)=C1C(=O)OCC (centres undefined)
CC50 [5]: 40.5 µM (active)

COc1ccc(NC(=O)/C(C#N)=C/c2cc(C)n(-c3ccc(N4CCOCC4)c([N+](=O)[O-])c3)c2C)cc1
EC50 [6]: 35.2 µM (active) | EC50 [7]: > 120 µM (not active) | EC50 [8]: > 120 µM (not active)

COc1ccccc1Cn1nnc2c(O)nc(C3CCN(C(=O)c4ccccc4Cl)CC3)nc21
EC50 [6]: > 120 µM (not active) | EC50 [7]: 68.6 µM (active) | EC50 [8]: > 120 µM (not active)

COc1ccccc1NS(=O)(=O)c1cccc(NC(=O)c2sc3ccccc3c2Cl)c1
EC50 [3]: 1.19 µM (active) | EC50 [4]: > 60 µM (not active)

CCc1ccc(N(C(=O)c2csnn2)C(C(=O)NC(C)(C)C)c2ccncc2)cc1 (centres undefined)
AC50 (Cytochrome P450 2C19; read-out: AC50): 2.82 µM (inconclusive)

CC(=O)N(C(C)=O)c1[nH]cc2c3ccccc3nc-2c1C#N
EC50 [6]: 12.9 µM (active) | EC50 [7]: 15.7 µM (active) | EC50 [8]: 9.63 µM (active)

CCCN1CCC(=NNc2ccc(S(=O)(=O)N(CC)CC)cc2[N+](=O)[O-])CC1
EC50 [6]: > 120 µM (not active) | EC50 [7]: 8.05 µM (active) | EC50 [8]: 16.5 µM (active)

Cc1ccn2cc(-c3cccc(S(=O)(=O)N4CC(C)OC(C)C4)c3)nc2c1 (centres undefined)
CC50 [5]: > 50 µM (active)

COC(=O)[C@@]1(Cc2ccccc2)[C@H]2c3cc(C(=O)N4CCCC4)[nH]c3C[C@H]2CN1C(=O)c1ccccc1
AC50 (Cytochrome P450 1A2): 1.26 µM (inconclusive)

CCOC(=O)c1cccc(-c2c(-c3ccccc3)ncc3cc(OC)c(OC)cc23)c1
CC50 [5]: 20.4 µM (active)

CCCCN1CC(=O)C(c2nc(-c3ccc(Cl)cc3)cs2)=C1N
EC50 [6]: > 120 µM (not active) | EC50 [7]: > 120 µM (not active) | EC50 [8]: > 120 µM (not active)

O=C(NCc1ccccc1)c1ccc(C(=O)N(C2CCCCC2)C2CCCCC2)cc1
EC50 [3]: 2.27 µM (active) | EC50 [4]: > 60 µM (inconclusive)

CCOC(=O)C1=C(CSc2nc3ccccc3s2)NC(=O)NC1c1cccc([N+](=O)[O-])c1 (centres undefined)
AC50 (Cytochrome P450 2C19; read-out: AC50): 1.58 µM (inconclusive)

CN1CCN(c2ncc3nc(-c4cccc(C#N)c4)c(=O)n(Cc4ccc(F)cc4)c3n2)CC1
AC50 (Cytochrome P450 2C19; read-out: AC50): 10 µM (inconclusive)

Cn1c(=O)[nH]c(=O)c2c1nc(N1CCCCCC1)n2Cc1cccc2ccccc12
EC50 [6]: > 120 µM (not active) | EC50 [7]: 45 µM (active) | EC50 [8]: 24.4 µM (active)

Cc1cc(C(=O)CSc2nc3ccccc3c(=O)n2C)c(C)n1Cc1ccc2c(c1)OCO2
AC50 (INS1): 1.41 µM (active)

COc1cccc(NC(S)=NN2CCN(C)CC2)c1
AC50 (Cytochrome P450 2C19; read-out: AC50): 28.2 µM (inconclusive)

CC(C)(C)c1ccc(C(=O)Nc2ccc(S(=O)(=O)Nc3cnc4ccccc4n3)cc2)cc1
CC50 [5]: 8.3 µM (active)

COC(=O)c1ccc(CSc2ccc3nnc(-c4ccccc4)n3n2)o1
EC50 [6]: 15.7 µM (active) | EC50 [7]: 16.6 µM (active) | EC50 [8]: > 120 µM (not active)

Cc1ccc(-c2cc(C(F)F)n3ncc(C(=O)N4CCc5ccccc5C4)c3n2)cc1
EC50 [3]: 1.72 µM (active) | EC50 [4]: > 60 µM (not active)

CCOc1cc(/C=C(\C#N)C(=O)Nc2cccc(C(=O)O)c2)ccc1OCc1ccccc1Cl
CC50 [5]: 29.9 µM (active)

OC[C@H]1O[C@H](n2cnc3c(NC4CCCC4)nc(Cl)nc32)[C@@H](O)[C@@H]1O
AC50 (Cytochrome P450 1A2): 39.8 µM (inconclusive)

COc1ccccc1N1CCN(C(CNC(=O)Oc2ccccc2)c2cccnc2)CC1 (centres undefined)
EC50 [3]: 5.42 µM (active) | EC50 [4]: > 60 µM (not active)

Cc1ccc(Nc2nnc(-c3ccc(N4CCOCC4)c([N+](=O)[O-])c3)c3ccccc23)cc1
CC50 [5]: 10.8 µM (active)

O=C(c1csnn1)N1CCC[C@@]2(CCN(c3ncccn3)C2)C1
AC50 (Cytochrome P450 1A2): 12.6 µM (inconclusive)

N[C@](CC1c2ccccc2Oc2ccccc21)(C(=O)O)[C@@H]1C[C@@H]1C(=O)O
AC50 (Cytochrome P450 1A2): 31.6 µM (inconclusive)

CCOc1ccccc1Nc1cc(C)nc2ccc(C)cc12
CC50 [5]: 26.1 µM (active)

O=c1n(Cc2ccccc2F)c2ccccc2n1Cc1ccccc1F
EC50 [6]: > 120 µM (not active) | EC50 [7]: > 120 µM (not active) | EC50 [8]: 22 µM (active)

COc1ccc(CN2CCN(Cc3cc4ccccc4o3)CC2CCO)cc1C (centres undefined)
EC50 [3]: 0.306 µM (active) | EC50 [4]: > 60 µM (not active)

Cc1cccc(N(CC(=O)N2CCOCC2)S(C)(=O)=O)c1
AC50 (Cytochrome P450 2C19): inconclusive

O=C(O)CCC(=O)Nc1ccc2ccccc2c1
AC50 (Cytochrome P450 1A2): 0.0631 µM (inconclusive)

O=C(/C=C/c1ccccc1)Nc1ccc2c(c1)OCCO2
EC50 [6]: 10.4 µM (inconclusive) | EC50 [7]: 9.98 µM (inconclusive) | EC50 [8]: 10.7 µM (inconclusive)

Cc1c(C(=O)NN2CCCCC2)nn(-c2ccc(Cl)cc2Cl)c1-c1ccc(I)cc1
EC50 [6]: > 120 µM (not active) | EC50 [7]: 12.4 µM (active) | EC50 [8]: 11.3 µM (active)

O=c1c2ccccc2nc(COc2ccccc2)n1/N=C/c1c[nH]nc1-c1ccccc1
EC50 [1]: 24.5 µM (active) | EC50 [2]: 19.6 µM (active)

O=C(N/N=C\c1cn(-c2ccccc2)nc1-c1ccccc1)c1ccc2c(c1)OCO2
AC50 (Cytochrome P450 1A2): 3.55 µM (inconclusive)

CCCSc1nnc(CSc2nc3nc(C)cc(C)n3n2)o1
AC50 (Cytochrome P450 2C19; read-out: AC50): 15.8 µM (inconclusive)

Cc1ccc(C)c(OCCCC(C)(C)C(=O)O)c1 [GEMFIBROZIL]
AC50 (Cytochrome P450 1A2): 12.6 µM (inconclusive)

From ChEMBL document CHEMBL1201862, “PubChem BioAssay data set” (2004)
